What all share (assay): NCI-60 cell line screen, 48 h
Experiment [1] relates to 786-0 renal.
Experiment [2] concerns A498 renal.
In experiment [3] the test system is HCT-15 colon.
The test system of experiment [4] is HL-60(TB) leukemia.
The subject of experiment [5] is HOP-92 NSCLC.
The test system of experiment [6] is HS 578T breast.
In experiment [7] the test system is IGROV1 ovarian.
Experiment [8] deals with K-562 leukemia.
The test system of experiment [9] is KM12 colon.
In experiment [10] the test system is MOLT-4 leukemia.
The test system of experiment [11] is OVCAR-5 ovarian.
The subject of experiment [12] is OVCAR-8 ovarian.
Experiment [13] deals with SNB-19 CNS.
Experiment [14] has as its system SNB-75 CNS.
For experiment [15], the system named is TK-10 renal.
Experiment [16] deals with LOX IMVI melanoma.
For experiment [17], the system named is MDA-MB-435.

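Each compound was tested at five concentrations against cells in 96-well plates for 48 hours. TGI denotes the concentration required for complete inhibition of growth.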

Turning to `CCOC(=O)CCC(NC(=O)C(N)c1ccc([N+](=O)[O-])cc1)C(=O)NC(CCC(=O)OCC)C(=O)OCC` (stereo not drawn), the TGI in experiment [1], in [2], in [3], in experiment [4], in [5] and in [6] was above 100 µM throughout. For the same compound, the TGI in [7], in experiment [8], in [9], in [10], in experiment [11] and in [12] was above 100 µM throughout. For the same compound, the TGI in [13], in experiment [14] and in [15] was above 100 µM each time.

Take `Cc1cc(C)c2c(c1)N[S@@](=O)S2`: the TGI in experiment [1] is 28.9 µM; in experiment [2], above 100 µM; in experiment [3] it was 33 µM; in experiment [4], 61.2 µM; in experiment [5], above 100 µM; in [7], above 100 µM. Besides, the TGI in experiment [8] was found to be 67.9 µM; in [9], 69.6 µM; in experiment [16] it was 30.7 µM; in [10] it was 65.6 µM; in experiment [11], 81.9 µM; in experiment [12], 33.2 µM. Further, the TGI in experiment [13] was above 100 µM; in experiment [14] it was above 100 µM; in experiment [15] it was 80.3 µM.

Regarding `O=c1cc(NNc2ccccc2F)[nH]c(=O)[nH]1`, the TGI in experiment [1] is 28.7 µM; in experiment [2] it was above 100 µM; in [3] it was 29.6 µM; in [4] it was 34.3 µM; in [5] it was 29.2 µM; in [6], 63.4 µM. The TGI is 30.4 µM in experiment [7]; 57.6 µM in experiment [8]; 28.7 µM in [9]; 29.7 µM in experiment [16]; 54 µM in experiment [10]; 38.7 µM in experiment [11]. For the same compound, the TGI was above 100 µM in experiment [13], 72.5 µM in experiment [14] and 27.5 µM in experiment [15].

Turning to `O=C1NC(=S)NC(=O)C1=Cc1ccc(-c2ccccc2)cc1`, the TGI in experiment [1], in experiment [3], in experiment [5], in experiment [6], in [7] and in experiment [8] was above 100 µM in each case. Further, the TGI in [9], in experiment [16], in experiment [17], in [10], in experiment [11] and in experiment [12] was above 100 µM each time. Also, the TGI in experiment [13] and in experiment [15] was above 100 µM throughout.

On to `COc1cc(OC)c2c(=O)c3c([N+](=O)[O-])cccc3n(C)c2c1`, for which the TGI in experiment [1], in experiment [2], in experiment [3], in experiment [4], in [5] and in [7] was above 100 µM throughout. Besides, the TGI in experiment [8], in [9], in experiment [16], in experiment [10], in experiment [11] and in [12] was above 100 µM in each case. In addition, the TGI in experiment [13], in [14] and in [15] was above 100 µM in each case.

As for `C[C@@H]1O[C@]2(O)[C@@H]3CCCN3S(=O)(=O)CCN2C1=O`, the TGI in [1], in experiment [2], in experiment [3], in [4], in experiment [5] and in experiment [7] was above 100 µM each time. Further, the TGI in experiment [8], in [9], in [16], in experiment [10], in [11] and in experiment [12] was above 100 µM in each case. The TGI in [13], in experiment [14] and in [15] was above 100 µM each time.

Turning to `Clc1ccc(CCc2ccncn2)c(Cl)c1`, the TGI in experiment [1], in experiment [2], in experiment [3], in experiment [4], in experiment [5] and in [7] was above 100 µM in each case. Also, the TGI in experiment [8], in [9], in [16], in [10], in experiment [11] and in experiment [12] was above 100 µM in each case. Besides, the TGI in experiment [13], in experiment [14] and in experiment [15] was above 100 µM throughout.

As to `COc1cc2c(cc1O)CN1CCC23C=C[C@@H](O)CC13` (stereo partly drawn), the TGI was above 100 µM in [1]; above 100 µM in experiment [2]; above 100 µM in [3]; 38 µM in experiment [4]; above 100 µM in experiment [5]; above 100 µM in [7]. The TGI in [8], in experiment [9], in [16], in experiment [10], in experiment [11] and in [12] was above 100 µM in each case. For the same compound, the TGI in experiment [13], in [14] and in [15] was above 100 µM in each case.

Consider `CC(C)CCC[C@@H](C)C1CCC2[C@@H]3CCC4C[C@@H](NS(C)(=O)=O)CC[C@]4(C)C3CC[C@@]21C` (stereo partly drawn), for which the TGI in experiment [1], in [3], in [4], in experiment [6], in [7] and in experiment [8] was above 100 µM in each case. Moreover, the TGI in [9], in [16], in [17], in experiment [10], in experiment [12] and in experiment [13] was above 100 µM throughout. The TGI in experiment [14] and in experiment [15] was above 100 µM throughout.

With `[N-]=[N+]=Nc1ccc2c(c1)Sc1ccccc1N2CCCCN1CCN(Cc2ccc(C(=O)c3ccc(CSCC(N)C(=O)O)cc3)cc2)CC1` (stereo not drawn), the TGI amounted to 24.4 µM in experiment [1]; 37.7 µM in [2]; 30.4 µM in experiment [3]; 30.8 µM in experiment [4]; 38.2 µM in experiment [5]; 30.9 µM in [7]. The TGI in experiment [8] is 44.9 µM; in experiment [9] it was 7.91 µM; in experiment [16], 24.9 µM; in experiment [17] it was 3.16 µM; in experiment [10] it was above 100 µM; in experiment [11] it was above 100 µM. The compound also yielded a TGI in experiment [15] above 100 µM.

On to `CCCCCCSCC/C(C)=N\OC`, for which the TGI in experiment [1], in [2], in [3], in experiment [4], in experiment [5] and in [7] was above 100 µM each time. Also, the TGI in experiment [8], in experiment [9], in experiment [16], in experiment [17], in experiment [10] and in experiment [11] was above 100 µM each time. In addition, the TGI in experiment [12], in [13], in [14] and in experiment [15] was above 100 µM each time.

For the compound `C/C(=N\NC(=S)NC(CCC(=O)O)C(=O)O)c1cnccn1` (stereo not drawn), the TGI in experiment [1], in [2], in experiment [3], in experiment [4], in experiment [5] and in experiment [7] was above 100 µM in each case. The TGI in experiment [8], in experiment [9], in experiment [16], in experiment [10], in [11] and in experiment [12] was above 100 µM each time. Moreover, the TGI in experiment [13], in [14] and in experiment [15] was above 100 µM throughout.

On to `CN(C)/C=N\c1nncc2[nH]cnc12`, for which the TGI in experiment [1], in experiment [2], in [3], in [5], in experiment [7] and in experiment [8] was above 100 µM each time. Moreover, the TGI in experiment [9], in experiment [16], in [17], in experiment [10], in experiment [11] and in experiment [12] was above 100 µM throughout. The TGI in [14] and in experiment [15] was above 100 µM in each case.

In the case of `COc1cc(C2C(C(=O)Nc3ccc([N+](=O)[O-])cc3)=C(C)NC(C)=C2C(=O)Nc2ccc([N+](=O)[O-])cc2)ccc1O`, the TGI is above 100 µM in experiment [1]; 99.8 µM in experiment [2]; 50.8 µM in [3]; above 100 µM in experiment [4]; 57 µM in [5]; 65.4 µM in experiment [7]. Further, the TGI in [8] was 81.6 µM; in experiment [9], 39 µM; in experiment [16], 31.5 µM; in experiment [10], 75.4 µM; in experiment [11], above 95.8 µM; in experiment [12] it was above 54.2 µM. In addition, the TGI in [13] was above 73.9 µM; in [14], above 86.3 µM; in [15], 68.7 µM.

For the compound `CCOC(=O)CCC(NC(=O)c1ccc(N=Cc2nc3ccccc3nc2-c2ccccc2)cc1)C(=O)OCC` (stereo not drawn), the TGI in [1], in experiment [2], in [3], in experiment [4], in experiment [5] and in [7] was above 100 µM throughout. For the same compound, the TGI in experiment [8], in experiment [9], in experiment [16], in experiment [10], in experiment [11] and in [12] was above 100 µM throughout. For the same compound, the TGI in [13], in [14] and in experiment [15] was above 100 µM in each case.

Consider `COC(=O)n1c(C)c(C=O)c2ccc(OC)cc21`, for which the TGI is above 100 µM in [1]; 82.7 µM in experiment [3]; above 100 µM in [4]; above 100 µM in [7]; above 100 µM in experiment [8]; 89.9 µM in [9]. The TGI was 84.5 µM in experiment [16]; 47.2 µM in experiment [17]; above 100 µM in experiment [10]; above 100 µM in experiment [11]; above 100 µM in experiment [12]; above 100 µM in [13]. The TGI was above 100 µM in experiment [14] and 67.6 µM in experiment [15].

As for `C[C@@H]1OC2(O)[C@H]3CCCN3S(=O)(=O)CCN2C1=O` (stereo partly drawn), the TGI in experiment [1], in experiment [2], in experiment [3], in experiment [4], in experiment [5] and in experiment [7] was above 100 µM in each case. For the same compound, the TGI in experiment [8], in [9], in experiment [16], in experiment [10], in experiment [11] and in experiment [12] was above 100 µM each time. Moreover, the TGI in experiment [13], in [14] and in [15] was above 100 µM throughout.

Turning to `Oc1cc(CN2CCOCCOCCOCCOCC2)c(O)cc1CN1CCOCCOCCOCCOCC1`, the TGI in [1] was 58.5 µM; in [2], above 100 µM; in experiment [3] it was above 67.4 µM; in [4], 52.4 µM; in experiment [5] it was 49.7 µM; in experiment [7], above 100 µM. Further, the TGI was above 75.2 µM in experiment [8]; above 100 µM in [9]; 66.4 µM in experiment [16]; 52.6 µM in experiment [10]; 61.6 µM in experiment [11]; above 100 µM in experiment [12]. Also, the TGI is above 100 µM in experiment [13], above 100 µM in experiment [14] and above 96.2 µM in experiment [15].

Regarding `CCc1[nH]c(=O)c2oc3cc4ccccc4cc3c2c1C(=O)O`, the TGI in experiment [1], in experiment [3], in experiment [4], in experiment [5], in experiment [6] and in experiment [7] was above 10 µM each time. The TGI in [9], in [16], in experiment [11], in experiment [12], in [13] and in experiment [14] was above 10 µM each time. The TGI in [15] is above 10 µM.
